Measured values: ChEMBL document CHEMBL5247585, “Design, synthesis, and evaluation of 4(1H)-quinolinone and urea derivatives as KRASG12C inhibitors with potent antitumor activity against KRAS-mutant non-small cell lung cancer” (Eur J Med Chem, 2022)
The source made the active and inactive calls. The rule behind the calls is not given here.

Assays:
NCI-H358 [1] = assay: Antiproliferative activity against human NCI-H358 cells harboring KRAS G12C mutant assessed as reduction in cell viability incubated for 72 hrs by MTT assay; format: functional, cell-based; details: NCI-H358, 72 h
A549 = assay: Antiproliferative activity against human A549 cells harboring KRAS G12S mutant assessed as reduction in cell viability incubated for 72 hrs by MTT assay; format: functional, cell-based; details: A549, 72 h
NCI-H2228 = assay: Antiproliferative activity against human NCI-H2228 cells harboring wild type KRAS assessed as reduction in cell viability incubated for 72 hrs by MTT assay; format: functional, cell-based; details: NCI-H2228, 72 h
NCI-H23 = assay: Antiproliferative activity against human NCI-H23 cells harboring KRAS G12C mutant assessed as reduction in cell viability incubated for 72 hrs by MTT assay; format: functional, cell-based; details: NCI-H23, 72 h
[2] = Toxicity in BALB/c mouse xenografted with human NCI-H358 cells harboring KRAS G12C mutant assessed as effect on body weight at 10 to 15 mg/kg, ip administered for 21 days; format: organism-based; details: in vivo, 504 h, dose 10-15 mg/kg, time 21 day
NCI-H358 [3] = assay: Antitumor activity against human NCI-H358 cells harboring KRAS G12C mutant xenografted in BALB/c mouse assessed as reduction in tumor growth at 10 to 15 mg/kg, ip administered for 21 days by Ki67 staining based analysis; format: functional, organism-based; details: dose 10-15 mg/kg, time 21.0 day
NCI-H358 [4] = assay: Antitumor activity against human NCI-H358 cells harboring KRAS G12C mutant xenografted in BALB/c mouse assessed as tumor growth inhibition at 15 mg/kg, ip administered for 21 days; format: functional; details: NCI-H358, 504 h, time 21 day, read-out: TGI
[5] = Selectivity index, ratio of IC50 for human A549 cells harboring KRAS G12S mutant to IC50 for human NCI-H23 cells harboring KRAS G12C mutant; format: functional
NCI-H358 [6] = assay: Inhibition of KRAS signaling in human NCI-H358 cells harboring KRAS G12C mutant assessed as decrease in ERK phosphorylation level at 0.5 to 8 uM incubated for 6 hrs by Western blot analysis relative to control; format: cell-based; details: dose 0.5-8 µM
[7] = test system: GTPase KRas (Homo sapiens), P01116 [G12C]; assay: (§1) Inhibition of 6His tagged Mant-GDP loaded human KRAS G12C mutant (1 to 169 residues) expressed in Escherichia coli BL21 (DE3) cells assessed as inhibition of SOS1-mediated nucleotide exchange at 10 uM preincubated with compound for 1 hrs followed by addition of GTP and SOS1 protein and measured every 90 sec for 2 hrs by fluorescence based assay; details: time 3.0 hrs
[8] = molecular target: GTPase KRas (Homo sapiens) (UniProt P01116); assay: Inhibition of KRAS signaling in human NCI-H2228 cells harboring wildtype KRAS at 0.5 to 8 uM incubated for 6 hrs by Western blot analysis; format: cell-based; details: dose 0.5-8 µM
NCI-H358 [9] = assay: Antitumor activity against human NCI-H358 cells harboring KRAS G12C mutant xenografted in BALB/c mouse assessed as tumor growth inhibition at 10 mg/kg, ip administered for 21 days; format: functional, organism-based; details: time 21.0 day
NCI-H358 [10] = assay: Inhibition of KRAS signaling in human NCI-H358 cells harboring KRAS G12C mutant assessed as decrease in AKT phosphorylation level at 0.5 to 8 uM incubated for 6 hrs by Western blot analysis relative to control; format: cell-based; details: dose 0.5-8 µM
NCI-H358 [11] = assay: Induction of apoptosis in human NCI-H358 cells assessed as fold change in cleaved caspase-3 level at 0.5 to 8 uM incubated for 6 hrs by Western blot analysis; format: functional; details: dose 0.5-8 µM
[12] = molecular target: GTPase KRas (Homo sapiens) (UniProt P01116); assay: Covalent binding affinity to 6his tagged GDP bound human wildtype KRAS expressed in Escherichia coli BL21 (DE3) cells at 200 uM incubated for 24 hrs by LC-MS/MS analysis
[13] = Selectivity index, ratio of IC50 for human A549 cells harboring KRAS G12S mutant to IC50 for human NCI-H358 cells harboring KRAS G12C mutant; format: functional
NCI-H441 = assay: Antiproliferative activity against human NCI-H441 cells harboring KRAS G12V mutant assessed as reduction in cell viability incubated for 72 hrs by MTT assay; format: functional, cell-based; details: NCI-H441, 72 h
[14] = test system: GTPase KRas (Homo sapiens), P01116 [G12C]; assay: In vivo inhibition of KRAS signaling in BALB/C mouse xenografted with human NCI-H358 cells harboring KRAS G12C mutant assessed as decrease in ERK phosphorylation in tumor at 10 to 15 mg/kg, ip administered for 21 days by IHC staining based analysis; format: functional, organism-based; details: dose 10-15 mg/kg, time 21.0 day
[15] = Selectivity index, ratio of IC50 for human NCI-H2228 cells harboring wild type KRAS to IC50 for human NCI-H358 cells harboring KRAS G12C mutant; format: functional
[16] = Selectivity index, ratio of IC50 for human NCI-H2228 cells harboring wild type KRAS to IC50 for human NCI-H23 cells harboring KRAS G12C mutant; format: functional
[17] = Selectivity index, ratio of IC50 for human MRC5 cells to IC50 for human NCI-H358 cells harboring KRAS G12C mutant
[18] = test system: GTPase KRas (Homo sapiens), P01116 [G12C]; assay: Covalent binding affinity to 6His tagged GDP bound human KRAS G12C mutant (1 to 169 residues) expressed in Escherichia coli BL21 (DE3) cells at 200 uM incubated for 24 hrs by LC-MS /MS analysis
[19] = Cytotoxicity against human MRC5 cells assessed as reduction in cell viability incubated for 72 hrs by MTT assay; format: toxicity, cell-based
NCI-H358 [20] = assay: Antitumor activity against human NCI-H358 cells harboring KRAS G12C mutant xenografted in BALB/c mouse assessed as increase in cleaved caspase-3 level at 10 to 15 mg/kg, ip administered for 21 days by IHC staining analysis; format: functional, organism-based; details: dose 10-15 mg/kg, time 21.0 day
[21] = test system: GTPase KRas (Homo sapiens), P01116 [G12C]; assay: as §1, with “[…]” for “SOS1-mediated”, “EDTA” for “SOS1 protein”; details: time 3.0 hrs
SK-LU-1 = assay: Antiproliferative activity against human SK-LU-1 cells harboring KRAS G12D mutant assessed as reduction in cell viability incubated for 72 hrs by MTT assay; format: functional, cell-based; details: SK-LU-1, 72 h

C=CC(=O)NC1CCN(C(=O)c2cc(=O)c3cc(Cl)c(I)cc3[nH]2)CC1
IC50 (NCI-H358 [1]): 19.2 µM
IC50 (A549): 22.8 µM
IC50 (NCI-H2228): 31.6 µM
IC50 (NCI-H23): 35.5 µM

O=C(Nc1ccc(Cl)c(-c2ccccc2F)c1)NC1CCN(C(=O)CCl)CC1
IC50 (NCI-H358 [1]): 37.7 µM
IC50 (A549): > 100 µM
IC50 (NCI-H2228): 34.9 µM
IC50 (NCI-H23): 42.8 µM

C=CC(=O)N1CCC(NC(=O)Nc2ccc(Cl)cc2)CC1
IC50 (NCI-H358 [1]): > 100 µM
IC50 (A549): > 100 µM
IC50 (NCI-H2228): > 100 µM
IC50 (NCI-H23): > 100 µM

C=CS(=O)(=O)N1CCC(NC(=O)Nc2ccc(Cl)c(C(F)(F)F)c2)CC1
IC50 (NCI-H358 [1]): 4.2 µM
IC50 (A549): 3.3 µM
IC50 (NCI-H2228): 6.4 µM
IC50 (NCI-H23): 2.6 µM

O=C(CCl)N1CCN(C(=O)Nc2ccc(Cl)c(-c3ccccc3F)c2)CC1
Activity [2]: Non-Toxic
Activity (NCI-H358 [3]): Active
inhibition in vivo at 15 mg/kg (NCI-H358 [4]): 50%
Ratio IC50 [5]: 7
inhibition (NCI-H358 [6]): 40%
inhibition [7]: Active
inhibition [8]: inactive
TGI (NCI-H358 [9]): Active
inhibition (NCI-H358 [10]): 30%
fold change (FC) (NCI-H358 [11]): 2
Activity [12]: inactive
Ratio IC50 [13]: 7
IC50 (NCI-H441): 4.4 µM
inhibition [14]: Active
Ratio IC50 [15]: 7
IC50 (NCI-H358 [1]): 0.5 µM
Ratio IC50 [16]: 7
Ratio IC50 [17]: 12
Activity [18]: Active
IC50 at 72 h [19]: 6.1 µM
IC50 (A549): 9.3 µM
Activity (NCI-H358 [20]): Active
inhibition [21]: inactive
IC50 (SK-LU-1): 4.6 µM
IC50 (NCI-H2228): 11.6 µM
IC50 (NCI-H23): 1.3 µM

C=CS(=O)(=O)NC1CCN(C(=O)CNc2cc(I)c(Cl)cc2OC)CC1
IC50 (NCI-H441): 21.5 µM
IC50 (NCI-H358 [1]): 4.4 µM
IC50 at 72 h [19]: 10.3 µM
IC50 (A549): 5.2 µM
IC50 (SK-LU-1): 22.8 µM
IC50 (NCI-H2228): 7.2 µM
IC50 (NCI-H23): 3 µM

C=CC(=O)N1CC[C@H](NC(=O)Nc2ccc(Cl)c(C(F)(F)F)c2)C1
IC50 (NCI-H358 [1]): 22.8 µM
IC50 (A549): > 100 µM
IC50 (NCI-H2228): 38.2 µM
IC50 (NCI-H23): 28.9 µM

C=CC(=O)N1CC[C@@H](NC(=O)Nc2ccc(Cl)c(C(F)(F)F)c2)C1
IC50 (NCI-H358 [1]): 38.1 µM
IC50 (A549): > 100 µM
IC50 (NCI-H2228): 58 µM
IC50 (NCI-H23): 29.7 µM

C=CS(=O)(=O)N1CCC(NC(=O)Nc2ccc(Cl)cc2)CC1
IC50 (NCI-H358 [1]): 31.9 µM
IC50 (A549): > 100 µM
IC50 (NCI-H2228): 27.5 µM
IC50 (NCI-H23): 18.9 µM

COc1cccc(F)c1-c1cc(NC(=O)NC2CCN(C(=O)CCl)CC2)ccc1Cl
IC50 (NCI-H358 [1]): 27.8 µM
IC50 (A549): 66.9 µM
IC50 (NCI-H2228): > 100 µM
IC50 (NCI-H23): 31.1 µM

C=CC(=O)N1CC[C@H](NC(=O)Nc2ccc(Cl)c(Cl)c2)C1
IC50 (NCI-H358 [1]): 34.2 µM
IC50 (A549): > 100 µM
IC50 (NCI-H2228): 65.3 µM
IC50 (NCI-H23): 40.8 µM

C=CC(=O)NC1CCN(C(=O)c2cc(=O)c3cc(Cl)c(C(F)(F)F)cc3[nH]2)CC1
IC50 (NCI-H358 [1]): 18.5 µM
IC50 (A549): 46.2 µM
IC50 (NCI-H2228): 42.4 µM
IC50 (NCI-H23): 8.2 µM

O=C(Nc1ccc(Cl)cc1)NC1CCN(C(=O)CCl)CC1
Ratio IC50 [5]: 3
inhibition [7]: Active
Activity [12]: inactive
Ratio IC50 [13]: 3
Ratio IC50 [15]: 3
IC50 (NCI-H358 [1]): 3.8 µM
Ratio IC50 [16]: 3
Activity [18]: Active
IC50 (A549): 17.5 µM
inhibition [21]: inactive
IC50 (NCI-H2228): 14.1 µM
IC50 (NCI-H23): 5.1 µM

O=C(Nc1ccc(Cl)c(Cl)c1)NC1CCN(C(=O)CCl)CC1
IC50 (NCI-H358 [1]): 5.5 µM
IC50 (A549): 7.4 µM
IC50 (NCI-H2228): 9.2 µM
IC50 (NCI-H23): 4.8 µM

C=CC(=O)NC1CCN(C(=O)c2cc(=O)c3cc(Cl)ccc3[nH]2)CC1
IC50 (NCI-H358 [1]): 29.7 µM
IC50 (A549): > 100 µM
IC50 (NCI-H2228): > 100 µM
IC50 (NCI-H23): 34.8 µM
